Earlier results on two compounds are cited in patent publication US20240382574A1, “METHODS AND COMPOSITIONS FOR ORALLY DOSING ANIMALS” (Animal Science Products, Inc., priority 2023, published 2024).

The data set concerns piglets. The settings on record: previous research.

For 3-methylindole (skatole), the attraction of piglets entry was “piglets are attracted to these molecules”.

On to `CCCCCCCCCCCCCC(=O)O` [myristic acid, tetradecanoic acid (myristic acid)], for which the attraction of piglets entry is “piglets are attracted to these molecules”.
